Values belong to the compound of their own block, whether it stands above or below them.
Experiments:
[1] = biological target: T1, human melatonin 1 receptors (human MT1 receptors) (Homo sapiens, UniProt P48039); experiment: Melatonin receptor binding inhibitory test (2-[125I] Iodomelatonin), MT1; conditions: membrane fraction of CHO-hMelR7 cells, 25° C. for 2.5 hr
T1 construct: expressed in transfected cells; membrane fraction used
Protocol: (§1) Melatonin receptor binding inhibitory test
(1) Preparation of CHO-hMelR7 Cells Expressing Human Melatonin 1 Receptors
A cDNA fragment (SEQ ID NO: 1) encoding full-length of human melatonin 1 receptors (human MT1 receptors) was incorporated into expression vector pAKKO-111H (former name pAKKO1.11H; Biochim Biophys Acta. Vol. 1219(2), pp. 251-259, 1994) to give plasmid pAKKO-hMelR7 for animal cell expression. CHO/dhfr-cells (ATCC, #CRL-9096) were plated at a concentration of 0.3×10^6 cells/dish in a 6 cm culture dish (Becton Dickinson), and cultured under the conditions of 37° C., 5% CO2 for 48 hr. The cells were transfected with pAKKO-hMelR7 plasmid DNA (5 μg) using Cellphect Transfection Kit (Amersham, #27-9268-01). The transfected cells were cultured in Dulbecco's modified Eagle medium (DMEM) (Sigma, #D6046) containing 10% dialyzed FBS (Biowest, #S180D), 1× Non-Essential Amino Acid (Invitrogen, #11140-050) and 50 μg/mL Gentamycin (Invitrogen, #15750-060), and the cell line that stably expressed the plasmid gene was selected. By a receptor binding assay using 2-[^125I] Iodomelatonin, CHO-hMelR7 cell line showing specific binding of 2-[^125I] Iodomelatonin was selected from the obtained clones.
(§2) (3) Preparation of Cellular Membrane Fraction of CHO Cell (CHO-hMelR7 and CHO-hMT2) Stably Expressing Human MT1 and MT2 Receptors
(§3) CHO-hMelR7 and CHO-hMT2 cells were plated using Cellfactory (Nunc, #170009) under the conditions of 1×10^8 cells/2000 mL/flask. The cells were grown to confluent, and recovered by the following method. As the medium for CHO-hMelR7 and CHO-hMT2, MEM α containing 10% FBS and penicillin/streptomycin was used. […] of geneticin was added to the medium for CHO-hMT2.
(§4) The medium was discarded, cells were washed twice with 200 mL of EDTA/PBS(−), 200 mL of EDTA/PBS(−) was further added, and the cells were stood still at room temperature for 20 min until they were released. The cells were recovered in four 50 mL tubes (Becton Dickinson, #352070), and centrifuged at 1,500 rpm for 10 min at 4° C. using a low speed cooling centrifuge (Hitachi, CF7D2). The supernatant was discarded, the pellets in the four tubes were suspended in 10 mL of PBS(−), and combined in one tube (Becton Dickinson, #352070). The mixture was further centrifuged at 1,500 rpm for 10 min at 4° C., and the obtained pellets were suspended in 20 mL of ice-cooled homogenizing buffer [10 mM NaHCO3, 5 mM EDTA, Protease inhibitor Complete (Roche), pH 7.4]. The cell suspension was homogenized 3 times using a polytron homogenizer at 20,000 rpm for 30 sec. The obtained homogenate was centrifuged (2,000 rpm, 10 min, 4° C.) using a low speed cooling centrifuge. The supernatant was recovered in an ultracentrifugation tube and ultracentrifuged (40,000 rpm, 60 min, 4° C.) using an ultracentrifuge (Beckman, L-90K). To the obtained pellets was added a suspending buffer [50 mM Tris-HCl, 1 mM EDTA, Protease inhibitor Complete (Roche), pH 7.4], and the pellets were suspended by pipetting. The protein concentration of this suspension was measured, diluted to 2 mg/mL to give cellular membrane fractions of CHO-hMelR7 and CHO-hMT2 cells. The membrane fractions were dispensed to 1.5 mL tubes (Eppendorf, #0030120.086) by 100 μL, preserved in a freezer (−80° C.) and used for a binding assay. Protein was quantified using BCA protein assay kit (Pierce) with BSA as the standard.
(§5) (4) Preparation of Membrane Fraction Suspension
(§6) Immediately before use, the membrane fractions of CHO-hMelR7 and CHO-hMT2 cells of the above-mentioned (3) were diluted 20-fold with assay buffer (50 mM Tris-HCl, pH 7.7).
(§7) (5) Preparation of 2-[^125I] Iodomelatonin Solution
(§8) 2-[^125I] Iodomelatonin (#NEX236, PerkinElmer) was diluted with the assay buffer to 400 pM for MT1 and 1 nM for MT2.
(§9) The assay buffer (80 μL) of the above-mentioned (4) was added to each well of a 96-well plate (type 3363, Corning). […]

[2] = biological target: T2, human melatonin 2 receptors (human MT2 receptors) (Homo sapiens, UniProt P49286); experiment: Melatonin receptor binding inhibitory test (2-[125I] Iodomelatonin), MT2; conditions: membrane fraction of CHO-hMT2 cells, 25° C. for 2.5 hr
T2 construct: expressed in transfected cells; membrane fraction used
T2 sequence (P49286 1-362): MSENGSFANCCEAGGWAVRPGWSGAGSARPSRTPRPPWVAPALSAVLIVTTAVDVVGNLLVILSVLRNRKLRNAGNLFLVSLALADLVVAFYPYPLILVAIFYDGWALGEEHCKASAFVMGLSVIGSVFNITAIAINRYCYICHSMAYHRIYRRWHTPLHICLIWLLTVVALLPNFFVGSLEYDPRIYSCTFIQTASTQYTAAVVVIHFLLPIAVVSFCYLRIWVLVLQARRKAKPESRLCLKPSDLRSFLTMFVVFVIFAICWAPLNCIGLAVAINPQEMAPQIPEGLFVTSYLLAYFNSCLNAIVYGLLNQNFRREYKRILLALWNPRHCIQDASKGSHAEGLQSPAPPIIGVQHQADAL
Protocol: as §1
(2) Preparation of CHO-hMT2 Cells Expressing Human Melatonin 2 Receptors
A cDNA fragment (SEQ ID NO: 2) encoding full-length of human melatonin 2 receptors (human MT2 receptors) was incorporated into expression vector pCMV-Script (Stratagene, #212220) to give the plasmid that was pCMV-human MT2 receptors expression vector for animal cell expression. CHO-K1 cells (ATCC, #CCL-61) were plated at the concentration of 1.5×10^5 cells/cm^2 in a 6 well plate (ASAHI TECHNO GLASS), and cultured under the conditions of 37° C., 5% CO2 for 24 hr. For gene transfection, solution obtained by blending pCMV-human MT2 receptors expression vector (1.9 μg), Lipofectamine Transfection Reagent (Invitrogen, #18324-012) (11.3 μL) and Minimum Essential Medium Eagle (MEM) medium (Sigma, M8042) (93.8 μL), and reacting at room temperature for 20 min was added to the cells per one well. The transfected cells were cultured in MEM medium containing 10% FBS (Life Technology) and 300 μg/mL Geneticin (GIBCO, #10131), and the cell line that stably expressed the plasmid gene was selected. By a receptor binding assay using 2-[^125I] Iodomelatonin, CHO-hMT2 cell line showing specific binding of 2-[^125I] Iodomelatonin was selected from the obtained clones.
as §2, §3, §4, §5, §6, §7, §8, §9

T1 sequence (P48039 whole entry): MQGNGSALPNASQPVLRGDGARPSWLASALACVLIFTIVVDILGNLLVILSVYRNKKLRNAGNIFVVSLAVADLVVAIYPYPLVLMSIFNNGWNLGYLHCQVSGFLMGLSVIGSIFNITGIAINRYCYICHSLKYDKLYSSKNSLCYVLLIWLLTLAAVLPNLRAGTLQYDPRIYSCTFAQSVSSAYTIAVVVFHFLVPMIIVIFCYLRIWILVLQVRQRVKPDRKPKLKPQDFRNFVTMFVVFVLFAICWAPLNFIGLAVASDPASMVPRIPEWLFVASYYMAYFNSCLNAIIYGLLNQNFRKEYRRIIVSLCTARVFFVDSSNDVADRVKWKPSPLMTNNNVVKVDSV

Structure (SMILES): CC(=O)NCCC1CCc2ccn3nccc3c21 (stereo not drawn) [Example 11, N-[2-(8,9-dihydro-7H-cyclopenta[c]pyrazolo[1,5-a]pyridin-9-yl)ethyl]acetamide]
IC50 [1]: ≤ 100 nM | IC50 [2]: ≤ 100 nM | melting point: 100 to 101 °C

Structure (SMILES): CC(=O)NCCC1CCc2ccn3nc(C)c(C)c3c21 (stereo not drawn) [Example 14, N-[2-(1,2-dimethyl-8,9-dihydro-7H-cyclopenta[c]pyrazolo[1,5-a]pyridin-9-yl)ethyl]acetamide]
IC50 [1]: ≤ 100 nM | IC50 [2]: ≤ 100 nM | melting point: 134 to 135 °C

Structure (SMILES): CC(=O)NCCC1CCc2c(F)cc3nn(C)cc3c21 (stereo not drawn) [Example 28, N-[2-(5-fluoro-2-methyl-2,6,7,8-tetrahydrocyclopenta[e]indazol-8-yl)ethyl]acetamide]
IC50 [1]: ≤ 100 nM | IC50 [2]: ≤ 100 nM | melting point: 116 to 119 °C

Structure (SMILES): CC(=O)NCCC1CCc2c(Cl)cc3nn(C)cc3c21 (stereo not drawn) [Example 31, N-[2-(5-chloro-2-methyl-2,6,7,8-tetrahydrocyclopenta[e]indazol-8-yl)ethyl]acetamide]
IC50 [1]: ≤ 100 nM | IC50 [2]: ≤ 100 nM | melting point: 143 to 144 °C

Structure (SMILES): Cc1cc2c3c(ccn2n1)CCC3CCNC(=O)C1CC1 (stereo not drawn) [Example 33, N-[2-(2-methyl-8,9-dihydro-7H-cyclopenta[c]pyrazolo[1,5-a]pyridin-9-yl)ethyl]cyclopropanecarboxamide]
IC50 [1]: ≤ 100 nM | IC50 [2]: ≤ 100 nM | melting point: 112 to 113 °C

Further lines, results first:

IC50 [1]: ≤ 100 nM | IC50 [2]: ≤ 100 nM | melting point: 72 to 73 °C
Structure (SMILES): CCC(=O)NCCC1CCc2ccn3nccc3c21 (stereo not drawn) [Example 12, N-[2-(8,9-dihydro-7H-cyclopenta[c]pyrazolo[1,5-a]pyridin-9-yl)ethyl]propanamide]

IC50 [1]: ≤ 100 nM | IC50 [2]: ≤ 100 nM | melting point: 155 to 156 °C
Structure (SMILES): CC(=O)NCC[C@@H]1CCc2ccc3nn(C)c(F)c3c21 [Example 23, N-{2-[(8S)-1-fluoro-2-methyl-2,6,7,8-tetrahydrocyclopenta[e]indazol-8-yl]ethyl}acetamide]

IC50 [1]: ≤ 100 nM | IC50 [2]: ≤ 100 nM | melting point: 168 to 171 °C
Structure (SMILES): CC(=O)NCC[C@@H]1CCc2ccc3nn(C)c(Cl)c3c21 [Example 24, N-{2-[(8S)-1-chloro-2-methyl-2,6,7,8-tetrahydrocyclopenta[e]indazol-8-yl]ethyl}acetamide]

IC50 [1]: ≤ 100 nM | IC50 [2]: ≤ 100 nM | melting point: 117 to 119 °C
Structure (SMILES): CCC(=O)NCCC1CCc2c(F)cc3nn(C)cc3c21 (stereo not drawn) [Example 29, N-[2-(5-fluoro-2-methyl-2,6,7,8-tetrahydrocyclopenta[e]indazol-8-yl)ethyl]propanamide]

IC50 [1]: ≤ 100 nM | IC50 [2]: ≤ 100 nM | melting point: 177 to 178 °C
Structure (SMILES): CC(=O)NCC=C1CCc2c(Cl)cc3nn(C)cc3c21 [Example 30, N-[2-(5-chloro-2-methyl-6,7-dihydrocyclopenta[e]indazol-8(2H)-ylidene)ethyl]acetamide]

— patent US8247429B2, “Tricyclic compound and pharmaceutical use thereof” (Takeda Pharmaceutical Company Limited, priority 2006, dated 2012)
